Target: T1, mouse Tas2r144 (Mus musculus, UniProt Q7TQB8)
T1 construct: expressed in transfected cells; host or cells: HEK293T-Gα16gust44
Test: Calcium imaging assay (FLIPR), HEK293T-Gα16gust44 cells transfected with mouse Tas2r144
Type: cell-based
Protocol: This set of bile acids was chosen because of their commercial availability in high purities, their diversity within the class of bile acids and their previous detection and quantitation in human blood. Stock solutions were prepared in DMSO.
As basal growth medium for the HEK293T-Gα16gust44 cell line[17],[59] served Dulbecco’s modified eagle medium (DMEM) (Thermo Fisher Scientific, Darmstadt, Germany) supplemented with 10 % fetal bovine serum (Sigma-Aldrich, Steinheim, Germany), 2 mM L-glutamine (Sigma-Aldrich, Steinheim, Germany), 100 units/ml penicillin (Sigma Aldrich, Steinheim, Germany) and 100 µg/ml streptomycin (Sigma Aldrich, Steinheim, Germany). Growth conditions were 37 °C, 5 % CO2 and saturated air-humidity[60].
HEK293T-Gα16gust44 cells were seeded on poly-D-lysine (10 µg/ml) coated 96-well plates to reach a confluence of 40-60 % the next day. For transient transfection 150 ng of plasmid DNA containing the receptor of interest and 0.3 µl lipofectamine 2000 (Thermo Fisher Scientific, Darmstadt, Germany) per well were used and transfection took place according to the manual of lipofectamine 2000. […] The empty vector DNA (mock) was transfected as negative control[14],[41].
Cells were loaded using the calcium-sensitive fluorescent dye Fluo-4-AM (Abcam, Cambridge, Great Britain) in the presence of 2.5 mM probenecid (Sigma-Aldrich, Steinheim, Germany) the day after transfection[13],[41]. 1 h after loading, cells were washed with C1 buffer using a BioTek Cell Washer, incubated in the dark for half an hour and washed again. For automated agonist application and measurement of fluorescence changes, a FLIPR^TETRA device (Molecular Devices, San José, United States) was used. Viability of cells was tested by application of 100 nM Somatostatin 14 (Bachem, Bubendorf, Switzerland)[42].
Measured data were negative control corrected by subtracting the signal of the mock-transfected cells and exported to Microsoft Excel using the FLIPR software ScreenWorks 4.2. In Microsoft Excel software, standardization of maximum fluorescence intensities to the basal fluorescence and normalization to the buffer-only control was done to calculate the relative fluorescence changes (ΔF/F).
Initial screening experiments performed in duplicate wells were confirmed by at least one replication and representative traces were selected for display. All dose-response relationships were determined by three independent experiments (biological replicates) performed in duplicates (technical replicates). Threshold concentrations, defined as lowest substance concentrations leading to statistically significant elevated fluorescence changes in receptor-transfected cells compared with empty vector-transfected cells, were determined using SigmaPlot with Student’s t-test to evaluate statistical significance (p < 0.01).

T1 sequence (Q7TQB8 whole entry): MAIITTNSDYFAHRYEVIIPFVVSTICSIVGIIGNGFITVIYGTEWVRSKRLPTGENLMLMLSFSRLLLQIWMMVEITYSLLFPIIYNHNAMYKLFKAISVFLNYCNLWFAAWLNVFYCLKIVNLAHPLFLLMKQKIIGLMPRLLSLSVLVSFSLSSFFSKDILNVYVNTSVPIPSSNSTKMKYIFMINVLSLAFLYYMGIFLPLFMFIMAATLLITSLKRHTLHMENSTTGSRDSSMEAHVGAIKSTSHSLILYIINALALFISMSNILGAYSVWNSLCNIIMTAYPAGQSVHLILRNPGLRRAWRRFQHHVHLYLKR

C[C@H](CCC(=O)NCCS(=O)(=O)O)[C@H]1CC[C@H]2[C@@H]3CC[C@@H]4C[C@H](O)CC[C@]4(C)[C@H]3CC[C@]12C [Taurolithocholic Acid, taurolithocholic acid]
RLU (Time 0 s): 0 RLU | RLU (Time 2 s): 14.6538 RLU | RLU (Time 4 s): 0.2718 RLU | RLU (Time 6 s): -11.922 RLU | RLU (Time 8 s): 1.321 RLU | RLU (Time 12 s): 10.4417 RLU | RLU (Time 14 s): -10.556 RLU | RLU (Time 16 s): -6.199 RLU | RLU (Time 18 s): 24.6697 RLU | RLU (Time 18.781 s): 60.5615 RLU | RLU (Time 20.781 s): -19.5171 RLU | RLU (Time 22.781 s): -4.009 RLU | RLU (Time 24.781 s): -20.7725 RLU | RLU (Time 26.781 s): 1.348 RLU | RLU (Time 28.781 s): -0.7767 RLU | RLU (Time 30.781 s): 41.688 RLU | RLU (Time 32.781 s): 71.1245 RLU | RLU (Time 34.781 s): 105.382 RLU | RLU (Time 36.781 s): 151.604 RLU | RLU (Time 38.781 s): 184.237 RLU | RLU (Time 40.781 s): 248.501 RLU | RLU (Time 42.781 s): 269.502 RLU | RLU (Time 44.781 s): 268.298 RLU | RLU (Time 46.781 s): 327.359 RLU | RLU (Time 48.781 s): 341.375 RLU | RLU (Time 50.781 s): 358.126 RLU | RLU (Time 52.781 s): 372.318 RLU | RLU (Time 54.781 s): 375.128 RLU | RLU (Time 56.781 s): 360.867 RLU | RLU (Time 58.781 s): 388.738 RLU | RLU (Time 60.781 s): 413.492 RLU | RLU (Time 62.781 s): 416.863 RLU | RLU (Time 64.781 s): 424.583 RLU | RLU (Time 66.781 s): 428.264 RLU | RLU (Time 68.781 s): 426.421 RLU | RLU (Time 70.781 s): 448.262 RLU | RLU (Time 72.781 s): 417.687 RLU | RLU (Time 74.781 s): 456.073 RLU | RLU (Time 76.781 s): 430.589 RLU | RLU (Time 78.781 s): 445.771 RLU | RLU (Time 80.781 s): 460.032 RLU | RLU (Time 82.781 s): 446.511 RLU | RLU (Time 84.781 s): 409.522 RLU | RLU (Time 86.781 s): 409.191 RLU | RLU (Time 88.781 s): 405.957 RLU | RLU (Time 90.781 s): 381.655 RLU | RLU (Time 92.781 s): 387.142 RLU | RLU (Time 94.781 s): 402.42 RLU | RLU (Time 96.781 s): 404.326 RLU | RLU (Time 98.781 s): 373.324 RLU | RLU (Time 100.781 s): 389.827 RLU | RLU (Time 102.781 s): 378.133 RLU | RLU (Time 104.781 s): 393.124 RLU | RLU (Time 106.781 s): 394.729 RLU | RLU (Time 108.781 s): 385.581 RLU | RLU (Time 110.781 s): 380.059 RLU | RLU (Time 112.781 s): 389.586 RLU | RLU (Time 114.781 s): 357.6 RLU | RLU (Time 116.781 s): 386.704 RLU | RLU (Time 118.781 s): 385.665 RLU | RLU (Time 120.781 s): 364.459 RLU | RLU (Time 122.781 s): 361.618 RLU | RLU (Time 124.781 s): 373.746 RLU | RLU (Time 126.781 s): 327.57 RLU | RLU (Time 128.781 s): 359.155 RLU | RLU (Time 130.781 s): 325.368 RLU | RLU (Time 132.781 s): 293.828 RLU | RLU (Time 134.781 s): 312.409 RLU | RLU (Time 136.781 s): 298.284 RLU | RLU (Time 137.578 s): 290.936 RLU | RLU (Time 143.578 s): 296.494 RLU | RLU (Time 149.578 s): 267.674 RLU | RLU (Time 155.578 s): 285.393 RLU | RLU (Time 161.578 s): 243.081 RLU | RLU (Time 167.578 s): 210.334 RLU | RLU (Time 173.578 s): 225.862 RLU | RLU (Time 179.578 s): 201.092 RLU | RLU (Time 185.578 s): 199.988 RLU | RLU (Time 191.578 s): 157.165 RLU | RLU (Time 197.578 s): 150.89 RLU | RLU (Time 203.578 s): 157.65 RLU | RLU (Time 209.578 s): 119.607 RLU | RLU (Time 215.578 s): 114.651 RLU | RLU (Time 221.578 s): 111.289 RLU | RLU (Time 227.578 s): 125.554 RLU | RLU (Time 233.578 s): 124.837 RLU | RLU (Time 239.578 s): 148.185 RLU | RLU (Time 245.578 s): 121.449 RLU | RLU (Time 293.578 s): 139.355 RLU | RLU (Time 299.578 s): 114.827 RLU | RLU (Time 305.578 s): 107.043 RLU | RLU (Time 311.578 s): 92.604 RLU | RLU (Time 317.578 s): 88.3008 RLU | RLU (Time 323.578 s): 90.2384 RLU | RLU (Time 329.578 s): 71.9932 RLU | RLU (Time 335.578 s): 67.9746 RLU | RLU (Time 341.578 s): 66.5352 RLU | RLU (Time 347.578 s): 80.5392 RLU | RLU (Time 353.578 s): 85.9834 RLU | RLU (Time 359.578 s): 89.3996 RLU | Activation threshold concentration Tas2r144 (p < 0.01 vs empty vector): 3 µM

Reference: publication PMC10247784, “Physiological activation of human and mouse bitter taste receptors by bile acids” (Communications Biology, 2023)
